Earlier results, collected in article PMC9116722 (Cancer chemotherapy and pharmacology, 2022).

System: ovarian cancer
Settings: phase II single-agent, ovarian cancer ref 46; cited from earlier work

Question: With `C[C@]1(c2nc3c(C(N)=O)cccc3[nH]2)CCCN1` [veliparib] as the compound, how does the response rate read?
Answer: 26%
